Assay results from ChEMBL document CHEMBL4376865, “Discovery and Characterization of 1H-1,2,3-Triazole Derivatives as Novel Prostanoid EP4 Receptor Antagonists for Cancer Immunotherapy” (J Med Chem, 2020).
pIC50: −log10 of the molar value.

How the values were obtained:
CYP2E1 = CYP2E1 (Homo sapiens, UniProt P05181); experiment: Inhibition of CYP2E1 in human liver microsomes at 20 uM using chlorzoxazone as substrate incubated for 60 mins by HPLC analysis relative to control; format: ADME; settings: probe chlorzoxazone
CYP2E1, sequence (P05181 whole entry): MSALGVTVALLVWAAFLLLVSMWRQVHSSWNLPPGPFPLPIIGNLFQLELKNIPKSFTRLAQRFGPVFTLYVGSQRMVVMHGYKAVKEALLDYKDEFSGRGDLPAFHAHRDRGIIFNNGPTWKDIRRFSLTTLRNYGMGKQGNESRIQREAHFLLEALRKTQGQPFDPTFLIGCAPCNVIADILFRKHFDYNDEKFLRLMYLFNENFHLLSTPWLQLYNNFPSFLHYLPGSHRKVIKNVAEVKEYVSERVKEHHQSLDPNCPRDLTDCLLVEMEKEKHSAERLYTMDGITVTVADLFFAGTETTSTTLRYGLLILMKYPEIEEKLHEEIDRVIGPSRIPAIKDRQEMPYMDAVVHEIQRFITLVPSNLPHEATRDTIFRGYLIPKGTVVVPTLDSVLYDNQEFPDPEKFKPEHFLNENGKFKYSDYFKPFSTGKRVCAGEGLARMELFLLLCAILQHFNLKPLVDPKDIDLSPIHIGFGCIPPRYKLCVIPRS

CYP2D6 = CYP2D6 (Homo sapiens, UniProt P10635); experiment: Inhibition of CYP2D6 in human liver microsomes at 20 uM using dextromethorphan as substrate incubated for 60 mins by HPLC analysis relative to control; format: ADME; settings: probe dextromethorphan
CYP2D6, sequence (P10635 whole entry): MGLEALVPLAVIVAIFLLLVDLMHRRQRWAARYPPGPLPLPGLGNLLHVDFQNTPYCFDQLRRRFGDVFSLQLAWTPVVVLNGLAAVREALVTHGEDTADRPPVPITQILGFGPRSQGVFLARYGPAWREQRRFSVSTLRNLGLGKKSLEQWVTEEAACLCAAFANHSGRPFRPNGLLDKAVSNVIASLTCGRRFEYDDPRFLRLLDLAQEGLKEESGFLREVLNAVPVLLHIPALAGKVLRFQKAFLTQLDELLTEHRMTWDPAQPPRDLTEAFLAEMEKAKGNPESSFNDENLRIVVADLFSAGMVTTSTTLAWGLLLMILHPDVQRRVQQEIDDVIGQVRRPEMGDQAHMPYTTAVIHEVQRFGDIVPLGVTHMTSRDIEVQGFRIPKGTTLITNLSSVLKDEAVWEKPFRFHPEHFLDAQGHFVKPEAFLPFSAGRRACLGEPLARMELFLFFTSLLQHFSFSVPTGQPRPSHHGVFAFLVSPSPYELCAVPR

[1] = biological target: Prostaglandin E2 receptor EP4 subtype (Mus musculus, UniProt P32240); experiment: Antagonist activity at mouse EP4 expressed in CHO cells coexpressing G16-alpha assessed as intracellular calcium flux preincubated for 15 mins followed by addition of PGE2 by calcium flux assay; format: functional, cell-based
Prostaglandin E2 receptor EP4 subtype (Mus musculus, UniProt P32240), sequence (P32240 whole entry): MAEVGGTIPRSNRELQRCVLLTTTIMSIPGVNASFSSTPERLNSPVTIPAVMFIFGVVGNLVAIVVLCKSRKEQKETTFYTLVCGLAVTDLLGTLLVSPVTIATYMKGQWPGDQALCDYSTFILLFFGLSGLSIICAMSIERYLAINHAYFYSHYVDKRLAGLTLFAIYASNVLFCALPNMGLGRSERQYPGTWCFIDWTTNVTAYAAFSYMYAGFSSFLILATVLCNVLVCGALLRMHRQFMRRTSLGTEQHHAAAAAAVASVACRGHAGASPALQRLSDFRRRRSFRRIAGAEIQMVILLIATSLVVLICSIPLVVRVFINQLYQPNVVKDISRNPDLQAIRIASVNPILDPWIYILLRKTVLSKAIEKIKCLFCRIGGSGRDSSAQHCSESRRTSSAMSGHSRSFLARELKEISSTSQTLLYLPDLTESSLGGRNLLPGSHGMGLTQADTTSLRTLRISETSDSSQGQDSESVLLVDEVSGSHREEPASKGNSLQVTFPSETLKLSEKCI

CYP1A2 = biological target: T1, CYP1A2 (Homo sapiens, UniProt P05177); experiment: Inhibition of CYP1A2 in human liver microsomes at 20 uM using phenacetin as substrate incubated for 30 mins by HPLC analysis relative to control; format: ADME; settings: probe phenacetin
T1 sequence (P05177 whole entry): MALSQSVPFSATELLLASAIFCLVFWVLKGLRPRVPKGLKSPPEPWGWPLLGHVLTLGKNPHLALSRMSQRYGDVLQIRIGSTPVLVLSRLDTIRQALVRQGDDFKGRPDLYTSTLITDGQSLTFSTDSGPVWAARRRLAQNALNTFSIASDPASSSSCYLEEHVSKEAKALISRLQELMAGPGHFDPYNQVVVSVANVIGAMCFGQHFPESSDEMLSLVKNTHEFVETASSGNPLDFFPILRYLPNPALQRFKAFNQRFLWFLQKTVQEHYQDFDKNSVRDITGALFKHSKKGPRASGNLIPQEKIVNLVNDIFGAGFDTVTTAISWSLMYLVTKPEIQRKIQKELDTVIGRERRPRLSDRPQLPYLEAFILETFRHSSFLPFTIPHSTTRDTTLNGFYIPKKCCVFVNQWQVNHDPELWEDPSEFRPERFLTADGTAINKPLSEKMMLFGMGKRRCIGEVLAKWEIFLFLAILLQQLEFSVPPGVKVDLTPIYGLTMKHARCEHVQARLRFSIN

CYP2B6 = biological target: T2, CYP2B6 (Homo sapiens, UniProt P20813); experiment: Inhibition of CYP2B6 in human liver microsomes at 20 uM incubated for 60 mins by HPLC analysis relative to control; format: ADME
T2 sequence (P20813 whole entry): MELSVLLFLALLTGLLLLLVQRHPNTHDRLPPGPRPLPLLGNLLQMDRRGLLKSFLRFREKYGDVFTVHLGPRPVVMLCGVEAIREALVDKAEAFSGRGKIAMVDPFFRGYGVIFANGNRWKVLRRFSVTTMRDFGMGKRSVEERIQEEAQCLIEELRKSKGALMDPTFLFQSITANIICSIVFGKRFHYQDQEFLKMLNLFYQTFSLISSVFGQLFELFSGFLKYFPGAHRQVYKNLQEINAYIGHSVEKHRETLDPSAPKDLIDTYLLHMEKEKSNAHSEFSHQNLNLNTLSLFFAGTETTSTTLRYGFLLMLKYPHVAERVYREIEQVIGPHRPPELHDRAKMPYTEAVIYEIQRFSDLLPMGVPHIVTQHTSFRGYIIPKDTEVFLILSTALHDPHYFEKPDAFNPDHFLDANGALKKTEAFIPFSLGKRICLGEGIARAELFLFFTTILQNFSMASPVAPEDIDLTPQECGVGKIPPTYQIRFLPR

CYP2C9 = CYP2C9 (Homo sapiens, UniProt P11712); experiment: Inhibition of CYP2C9 in human liver microsomes at 20 uM using tolbutamide as substrate incubated for 60 mins by HPLC analysis relative to control; format: ADME; settings: probe tolbutamide
CYP2C9, sequence (P11712 whole entry): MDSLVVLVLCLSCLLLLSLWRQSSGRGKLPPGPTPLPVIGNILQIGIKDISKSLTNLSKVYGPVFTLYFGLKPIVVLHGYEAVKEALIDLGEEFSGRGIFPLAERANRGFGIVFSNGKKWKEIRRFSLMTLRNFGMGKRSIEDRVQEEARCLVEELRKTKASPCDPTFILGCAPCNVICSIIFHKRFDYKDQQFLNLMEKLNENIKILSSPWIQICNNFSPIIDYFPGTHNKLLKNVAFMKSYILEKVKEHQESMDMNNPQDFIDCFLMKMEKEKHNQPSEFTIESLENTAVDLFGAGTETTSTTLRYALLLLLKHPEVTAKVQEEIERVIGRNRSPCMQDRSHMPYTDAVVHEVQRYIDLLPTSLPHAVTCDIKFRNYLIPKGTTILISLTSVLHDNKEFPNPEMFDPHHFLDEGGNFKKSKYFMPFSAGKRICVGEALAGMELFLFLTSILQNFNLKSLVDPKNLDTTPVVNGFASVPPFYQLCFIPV

Cytochrome P450 3A4 = Cytochrome P450 3A4 (Homo sapiens, UniProt P08684); experiment: Inhibition of CYP3A4 in human liver microsomes at 20 uM using testosterone as substrate incubated for 60 mins by HPLC analysis; format: ADME; settings: 1 h
Cytochrome P450 3A4, sequence (P08684 whole entry): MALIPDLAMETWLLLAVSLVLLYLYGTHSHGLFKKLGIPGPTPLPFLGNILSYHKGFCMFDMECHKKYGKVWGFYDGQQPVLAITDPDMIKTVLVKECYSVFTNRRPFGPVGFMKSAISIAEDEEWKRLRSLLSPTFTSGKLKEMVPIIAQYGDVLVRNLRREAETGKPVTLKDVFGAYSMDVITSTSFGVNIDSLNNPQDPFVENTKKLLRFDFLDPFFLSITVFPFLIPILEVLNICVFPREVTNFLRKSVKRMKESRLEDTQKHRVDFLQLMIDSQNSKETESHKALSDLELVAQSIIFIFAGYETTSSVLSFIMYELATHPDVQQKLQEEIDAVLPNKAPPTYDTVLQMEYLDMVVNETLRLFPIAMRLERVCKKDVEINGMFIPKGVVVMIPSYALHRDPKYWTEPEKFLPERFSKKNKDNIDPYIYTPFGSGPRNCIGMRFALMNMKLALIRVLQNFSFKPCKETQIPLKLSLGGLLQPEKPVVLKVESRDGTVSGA

[2] = Volume of distribution at steady state in BALB/c mouse at 1 mg/kg, iv measured upto 24 hrs by LC-MS/MS analysis; settings: in vivo
[3] = Apparent volume of distribution in BALB/c mouse at 1 mg/kg, iv measured upto 24 hrs by LC-MS/MS analysis; settings: in vivo
[4] = biological target: T3, Prostaglandin E2 receptor EP4 subtype (Homo sapiens, UniProt P35408); experiment: Inhibition of human EP4 transfected in human HEK293 cells co transfected with CRE-luciferase assessed as reduction in PGE2-induced luciferase expression incubated for 24 hrs by luciferase reporter gene Assay
T3 sequence (P35408 whole entry): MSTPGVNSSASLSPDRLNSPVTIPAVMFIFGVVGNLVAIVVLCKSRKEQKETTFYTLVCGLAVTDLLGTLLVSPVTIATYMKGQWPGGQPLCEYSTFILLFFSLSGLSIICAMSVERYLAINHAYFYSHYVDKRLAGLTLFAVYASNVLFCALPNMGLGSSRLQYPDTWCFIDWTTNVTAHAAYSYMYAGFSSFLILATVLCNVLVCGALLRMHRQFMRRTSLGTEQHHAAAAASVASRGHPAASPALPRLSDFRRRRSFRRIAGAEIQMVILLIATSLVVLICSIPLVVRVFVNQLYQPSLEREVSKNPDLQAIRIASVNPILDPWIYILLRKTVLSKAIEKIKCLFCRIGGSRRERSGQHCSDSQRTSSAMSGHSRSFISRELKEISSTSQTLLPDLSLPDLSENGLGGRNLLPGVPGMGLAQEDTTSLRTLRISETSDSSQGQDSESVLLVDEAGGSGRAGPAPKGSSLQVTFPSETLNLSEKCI

CT26 [5] = experiment: Antitumor activity against mouse CT26 cells xenografted in BALB/c mouse assessed as tumor growth inhibition at 16 mg/kg, po administerd daily and measured after two weeks; settings: 336 h, read-out: TGI
CT26 [6] = experiment: Antitumor activity against mouse CT26 cells xenografted in BALB/c mouse assessed as tumor growth inhibition at 150 mg/kg, po administerd daily and measured after two weeks; settings: 336 h, read-out: TGI
[7] = Half life in BALB/c mouse at 5 mg/kg, po measured upto 24 hrs by LC-MS/MS analysis; settings: in vivo
[8] = biological target: T3, Prostaglandin E2 receptor EP4 subtype
Description: Antagonist activity at human EP4 expressed in CHO cells coexpressing G16-alpha assessed as intracellular calcium flux preincubated for 15 mins followed by addition of PGE2 by calcium flux assay

[9] = biological target: T4, Prostaglandin E2 receptor EP3 subtype (Homo sapiens, UniProt P43115)
T4 sequence (P43115 whole entry): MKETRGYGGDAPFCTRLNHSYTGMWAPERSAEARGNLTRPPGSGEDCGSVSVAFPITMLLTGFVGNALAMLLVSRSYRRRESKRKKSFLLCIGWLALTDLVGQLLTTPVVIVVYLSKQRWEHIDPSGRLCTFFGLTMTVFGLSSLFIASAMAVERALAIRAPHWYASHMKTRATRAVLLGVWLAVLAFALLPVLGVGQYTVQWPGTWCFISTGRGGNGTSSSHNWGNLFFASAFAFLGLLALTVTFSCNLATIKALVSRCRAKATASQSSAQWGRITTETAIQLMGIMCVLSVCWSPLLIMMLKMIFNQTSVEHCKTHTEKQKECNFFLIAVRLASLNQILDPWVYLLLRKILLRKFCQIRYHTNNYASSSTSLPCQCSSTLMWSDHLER
Description: Antagonist activity at human EP3 expressed in CHO cells coexpressing G16-alpha assessed as intracellular calcium flux preincubated for 15 mins followed by addition of PGE2 by calcium flux assay

in vivo [10] = settings: BALB/c, mouse, iv, 1 mg/kg
in vivo [11] = settings: BALB/c, mouse, po, 5 mg/kg
Description: Cmax in BALB/c mouse at 5 mg/kg, po measured upto 24 hrs by LC-MS/MS analysis

in vivo [12] = settings: BALB/c, mouse, po, 5 mg/kg; remark: listed apart in the source
Description: Oral bioavailability in BALB/c mouse at 5 mg/kg measured upto 24 hrs by LC-MS/MS analysis

in vitro [13] = settings: human, liver microsomes
in vitro [14] = settings: human, liver microsomes; remark: listed apart in the source
in vitro [15] = settings: CD1, mouse, liver microsomes

For `C/C=C/c1nnn(Cc2ccc(C(F)(F)F)cc2)c1C(=O)N[C@@H](C)c1ccc(C(=O)O)cc1`, the inhibition at 1 h, 20 µM (CYP2E1) was 66%, the inhibition at 1 h, 20 µM (CYP2D6) was 23% and the pIC50 [1] was 7.79. It also gave an inhibition at 0.5 h, 20 µM (CYP1A2) of 27%, an inhibition at 1 h, 20 µM (CYP2B6) of 26% and an inhibition at 1 h, 20 µM (CYP2C9) of 33%. For the same compound, the “inhibition (INH)” value (Cytochrome P450 3A4) was “Not Active”, the Vd at 24 h [2] was 4.4 L/kg and the Vd at 24 h [3] was 10.2 L/kg. The pIC50 [4] was 8.28, the inhibition in vivo at 16 mg/kg (CT26 [5]) was 24.6% and the inhibition in vivo at 150 mg/kg (CT26 [6]) was 63.8%. The half-life at 24 h [7] was 4.7 h, the pIC50 [8] was 8.21 and the pIC50 [9] was less than 5.00. For the same compound, the Cmax at 24 h (in vivo [10]) was 1200 ng/mL, the Cmax at 24 h (in vivo [11]) was 194 ng/mL and the bioavailability at 24 h (in vivo [12]) was 48%. The half-life at 1 h, 10 µM (in vitro [13]) was greater than 2.42 h, the microsomal CLint at 1 h, 10 µM (in vitro [14]) was less than 9.6 µL/min/mg and the half-life at 1 h, 10 µM (in vitro [15]) was greater than 2.42 h.
